“And” between values parts separate entries of the source, which are not always exact repeats. Equal entries are not always repeated. “Also recorded” adds a separate entry of the source. Blank lines part the entries; values can stand above or below the substance they belong to. No end group written: not given here. *: point of attachment. SO3 = O=S(=O)(O)*
Columns and labels:
[1] = target: factor Xa (Homo sapiens, UniProt P00742); test: Cofactor effect of factor Va heavy chain peptides on factor Xa alone; type: biochemical; conditions: peptide incubated with factor Xa alone
[2] = target: T1, prothrombinase (Homo sapiens, UniProt P00734); test: Assay measuring thrombin formation (prothrombinase inhibition by peptides, DAPA fluorescence); type: biochemical; conditions: for inhibition of prothrombinase activity with increasing peptide: FIG. 10A, up to 8000 nM; for effect on prothrombinase / factor Va cofactor activity at fixed concentration: peptide 100 μM
T1 construct: purchased Haematologic Technologies Inc. (Essex Junction, Vt.)
Experimental: Assay measuring thrombin formation. The formation of thrombin was analyzed using the fluorescent thrombin inhibitor DAPA as described using a Perkin Elmer LS-50B Luminescence Spectrometer (Perkin-Elmer LLC, Norwalk Conn.) with λex=280 nm, λem=550 nm and a 500 nm long pass filter in the emission beam (Schott KV-500). […] In all cases peptides were preincubated with factor tor Va prior to the assay as described in the legend to the figures. The final concentration of factor tor Va in the mixture was 4 nM with factor Xa at 10 nM, prothrombin at 350 nM, DAPA at 700 nM, in the presence of PCPS vesicles (10 μM). The initial rate of thrombin formation (nM IIa·min^−1) was calculated as described during the initial 5-10 sec of the reaction. To verify if the peptides have any effect on the active-site of thrombin, control experiments were performed as follows: a given peptide (at 100 μM) was incubated in the assay buffer containing DAPA (700 nM); the base line was monitored for 30 sec; thrombin (350 nM) was then added to the mixture and the fluorescent intensity resulting from the complexation of DAPA with the active site of thrombin was monitored for 60 sec. The slope of the reaction measuring thrombin formation in the presence of a given peptide during the first 5 sec was calculated and compared to the slope of a reaction obtained in the absence of peptide. It is noteworthy that under the conditions employed the thrombin-DAPA interaction occurred fast and the calculated slope of the reaction was sensitive to all parameters used. […] All experiments were performed in triplicates or as indicated. The concentration of each peptide given in the figures and figure legends is their final concentration in the assay. […] In some cases the data were also analyzed and plotted using DeltaGraph (DeltaPoint, Monterey, Calif.).
Specifically, peptides were incubated with factor tor Va as described herein at a fixed concentration (100 μM). The percent of factor tor Va cofactor activity was calculated by comparing the activity of prothrombinase in the presence of a given peptide to the activity of prothrombinase determined in a control reaction in the absence of peptide and in the presence of factor Xa. […] The control peptide represents a pentadecapeptide from the middle portion of factor tor Va heavy chain (P15H) (SEQ ID NO. 22). […] All other peptides from region 680-709 had no significant effect on prothrombinase activity.
HC3 represents amino acid sequence 690-699 of factor tor Va heavy chain; HC4 contains the sequence 695-704 of human factor tor Va heavy chain; P15H represents amino acid sequence 337-351 from the middle portion of human factor tor Va heavy chain. […] The concentration of each peptide given on the x axis represents its final concentration in the prothrombinase mixture. […] Thus, both peptides show similar inhibitory potential.

[3] = Clotting time as a function of peptide concentration (FIG. 12); conditions: peptide 500 nM
From the text: FIG. 12 is a graph illustrating clotting time as a function of concentration of various peptides of interest as follows: DYDYQ (SEQ ID NO. 11) (filled squares); DYDYQ (1, 2) (or as designated in shorthand form, D5Q1,2) (SEQ ID NO. 9) (filled triangles); DYDYQ-1 (SEQ ID NO. 7) (filled inverted triangles); and DYDYQ-2 (SEQ ID NO. 8) (filled diamonds).

[4] = target: T2, active-site-immobilized thrombin (Homo sapiens, UniProt P00734); test: Direct binding of the peptides to thrombin-agarose (chromatography); conditions: 400 μg peptide, 2.5 ml column, elution 2M NaCl
T2 construct: Factor Xa cleaves prothrombin to form thrombin; purchased Haematologic Technologies Inc. (Essex Junction, Vt.)
Experimental: Direct binding of the peptides to thrombin. Thrombin was immobilized onto agarose through the active site as described. Peptide solutions of HC1-HC5 (SEQ ID NO. 2-6, respectively), D13R (SEQ ID NO. 21), DYDYQ (SEQ ID NO. 11), and P15H (SEQ ID NO. 22) were dissolved in water to a given concentration and then diluted in 20 mM Hepes, 0.1 M NaCl, pH 7.4 in a manner that 400 μg was contained in each starting solution. In control experiments it was determined that the maximum amount of peptide that could be retained by the thrombin-agarose column was 400 μg. Since some of the peptides contain aromatic amino acid residues, their concentration was also measured by optical density.
Mass spectrometry instruments and conditions. The identity of all peptides found in the flow-through or the elution of the thrombin-agarose column was verified by mass spectrometry. Since the peptides were in a buffer solution, we used Liquid Chromatography/Mass Spectrometry (LC/MS) for their identification. In this procedure peptides are first separated from the salt content of the buffer using an HPLC system (HP 1100, HPLC gradient system, Agilent Technologies, Palo Alto Calif.) with a C18 column (1 mm×15 cm, GraceVydac, Hesperia Calif.) with buffers A (0.3% acetic acid in water) and B (0.3% acetic acid in acetonitrile). The elution of the column was monitored with a Micromass Quatro II ESI-Triple Quadrupole Mass Spectrometer (Waters, Milford Mass.). The data were collected using a Compaq Professional Workstation AP200 (Hewlett-Packard, Palo Alto Calif.) and analyzed by the software MassLynx v3.3 (Waters, Milford Mass.).
Direct interaction of hirudin-like peptides from factor tor Va heavy chain With thrombin-agarose. To ascertain that the peptides of interest are inhibitory of prothrombinase activity and contain a binding site for thrombin, the interaction of all peptides with active-site-immobilized thrombin was studied in chromatographic experiments and is shown in FIG. 5. In FIG. 5, small scale chromatography of hirudin-like peptides was performed on a 2.5 ml thrombin-agarose. Each run represents 400 μg of peptide. This amount of peptide was determined to saturate the specific sites of thrombin of the column used (2.5 ml). Elution was performed with 2M NaCl and was started at the point indicated by the arrow (fraction #30). The presence of the peptides in the corresponding fractions was monitored by absorbance at 280 nm (shown on the y axis) and by LC/MS (inset). […] Specifically, these peptides were treated similarly to all other peptides and similar fractions were collected. Aliquots from fractions #7 and #35 from each separate experiment were submitted to LC/MS analysis as described herein (depicted by the hatched arrows at the bottom of the chromatogram). The results from tube #7 from three chromatograms are depicted. The data are presented as % intensity of the signal as a function of the mass of the peptide divided by the charge (m/z). FIG. 5A, HC1 (Mr calculated 1268); FIG. 5B, HC2 (Mr calculated 1132); FIG. 5C, HC5 (Mr calculated 1053). The spectrum of HC1 has two major peaks: at 635.5 and at 424, and one minor peak at 1270 (1268+1). The peak at 635.5 represents the peptide (mass/charge) with two positive charges ([…]) i.e. [(1268+2=1270)]/2=635 whereas, the peak at 424 represents HC1 with three positive charges ([…]) i.e. [(1268+3=1271)]/3=424. […] HC5 spectrum has two major peaks: one at 528 and one at 352. The peak at 528 represents the peptide with two positive charges ([…]) i.e. [(1053+2=1055)]/2=527.5 while, the other peak represents HC5 with three positive charges ([M+31-]^2+) i.e. [(1053+3=1056)]/3=352. The minor peak at 1054 represents the peptide with one charge. It is noteworthy, that in gas phase the number of protons attached to each peptide depends on the number (quantity) of basic residues contained in each peptide. […] Thus, HC1 and HC5 are more likely to bind two or three protons than HC2. […]

[5] = target: T3, [OG488]-EGR-hXa-human factor tor Va (Homo sapiens, UniProt P00742); test: Fluorescence anisotropy of preformed membrane-bound [OG488]-EGR-hXa-factor Va complex; type: binding; conditions: up to 300 μM peptide
T3 construct: purchased Haematologic Technologies Inc. (Essex Junction, Vt.)
Experimental: Fluorescence Anisotropy measurements. Fluorescence anisotropy of [OG488]-EGR-hXa was measured using a Perkin Elmer LS-50B Luminescence Spectrometer in L-format as recently described. Anisotropy measurements were performed in a quartz cuvette under constant stirring (low) with λex=490 nm, λem=520 nm with a long pass filter (Schott KV-520) in the emission beam. […] The concentration of peptide given in each graph is the final concentration of the peptide in the assay mixture. […] In some cases the data were also plotted using DeltaGraph (DeltaPoint, Monterey, Calif.).
HC3 and HC4 were also tested for their ability to interfere with the fluorescence anisotropy of a preformed complex composed of membrane-bound [OG488]-EGR-hXa-human factor tor Va as described. […] The peptides must thus impair another function of the cofactor within prothrombinase.

[6] = test system: factor V deficient plasma; test: Clotting activity of recombinant factor V molecules; conditions: for Activity / Specific activity / clotting time: factor V species at 2.5 nM
Experimental: Determination of factor V/tor Va clotting activity of the recombinant molecules. Cofactor activity of wild type and mutant molecules was measured in a clotting assay using factor V deficient plasma prior and after activation by thrombin (15 min, 37° C.) and RVV-V activator (2 hr, 37° C.) as described. The values were standardized to the percentage of control. A linear semi-log graph was constructed using known concentrations of purified factor V (U/ml as a function of clotting time). The assay endpoint was determined by visualization of the fibrin clot. The activity of the factor VNa solution (U/ml) was determined by extrapolation from the graph. The concentration of the recombinant molecules was determined by a recently described ELISA. Finally, the numbers were combined to obtain the specific activity of the recombinant factor V solutions (U/mg).

Sequence of factor Xa (P00742 235-488 limits assumed): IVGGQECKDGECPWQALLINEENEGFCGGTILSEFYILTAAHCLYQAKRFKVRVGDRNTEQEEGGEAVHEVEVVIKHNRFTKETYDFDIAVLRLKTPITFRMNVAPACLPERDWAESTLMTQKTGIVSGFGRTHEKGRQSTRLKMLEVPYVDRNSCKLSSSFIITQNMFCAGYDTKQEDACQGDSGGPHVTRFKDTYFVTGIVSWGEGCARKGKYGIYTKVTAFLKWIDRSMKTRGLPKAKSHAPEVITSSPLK
Sequence of factor Xa (P00742 41-179 limits assumed): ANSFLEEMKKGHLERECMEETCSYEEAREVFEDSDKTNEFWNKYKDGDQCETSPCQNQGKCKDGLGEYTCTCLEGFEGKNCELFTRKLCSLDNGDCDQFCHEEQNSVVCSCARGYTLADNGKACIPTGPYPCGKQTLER
T3 sequence (P00742 41-179 limits assumed): as above
T3 sequence (P00742 235-488 limits assumed): as the sequence (P00742 235-488 limits assumed) above

cofactor effect on factor Xa [1]: generated a cofactor effect
Substance: AP4′: nine amino acid peptide, residues 323-331, from N42R (EYFIAAEEV; listed as Homo sapiens)

inhibition of prothrombinase activity with increasing peptide [2]: significant inhibitory effects
Substance: DY(—SO3)DYQ (DY(SO3)DYQ) [DYDYQ-1, DYDYQ with first Y sulfonated]
clotting time [3]: relatively long clotting times

inhibition of prothrombinase activity with increasing peptide [2]: significant inhibitory effects
Substance: DYDY(—SO3)Q (DYDY(SO3)Q) [DYDYQ-2, DYDYQ with second Y sulfonated]
clotting time [3]: relatively long clotting times

Vmax of prothrombinase in presence of increasing peptide ([2]; HC4 0.5-2 μM, increasing prothrombin): ~525±30 nM IIa/min
Ki ([2]; calculated from IC50=Ki(1+S0/Km), Km 0.4 μM, S0 350 nM prothrombin, read-out: Ki of prothrombinase inhibition): 5.3 µM and ~5.3 µM
IC50 ([2]; factor Va 4 nM, factor Xa 10 nM, prothrombin 350 nM, PCPS 10 μM, peptide preincubated with factor Va): 10 µM and ~10 µM
Substance: DYDYQNRLAA [HC4]
type of inhibition of prothrombinase with respect to prothrombin ([2]; kinetic analyses, increasing prothrombin and peptide): competitive type of inhibition; also recorded: competitive inhibitors
effect on prothrombinase / factor Va cofactor activity at fixed concentration [2]: inhibited prothrombinase; also recorded: complete inhibition
interaction with immobilized thrombin (thrombin-agarose) [4]: eluted from the column with high-salt buffer; also recorded: interact with immobilized thrombin
interference with binding of factor Va to [OG488]-EGR-hXa (anisotropy) [5]: No significant decrease; also recorded: unable to interfere with the binding of factor tor Va

cofactor effect on factor Xa [1]: generated a cofactor effect
Substance: E5A: five amino acid peptide, residues 323-327, from N42R (EYFIA; listed as Homo sapiens)

Substance: Factor V^2K2F: quadruple mutant, recombinant human factor V with mutations D695→K, Y696→F, D697→K, Y698→F
ability to promote clotting [6]: unable to promote clotting
Activity [6]: 0.0046 U/ml
Specific activity [6]: 5.6 U/mg
clotting time [6]: 66.7 ± 1.3 s

interaction with immobilized thrombin (thrombin-agarose) [4]: present in the flow-through
Substance: HC1: overlapping 10 amino acid peptide from region 680-709 of human factor Va heavy chain (KMHDRLEPED; listed as Homo sapiens)

interaction with immobilized thrombin (thrombin-agarose) [4]: present in the flow-through
Substance: HC2: overlapping 10 amino acid peptide from region 680-709 of human factor Va heavy chain (LEPEDEESDA; listed as Homo sapiens)

Substance: N42R: 42 amino acid peptide from the middle portion of factor Va heavy chain, residues 307-351 of factor V (NLKKITREQRRHMKRWEYFIAAEEVIWDYAPVIPANMDKKYR; listed as Homo sapiens)
cofactor effect on factor Xa [1]: increasing the catalytic efficiency of the enzyme by several-fold

interaction with immobilized thrombin (thrombin-agarose) [4]: did not interact with thrombin
Substance: P15H: negative control pentadecapeptide, amino acid sequence 337-351 from the middle portion of human factor Va heavy chain (PVIPANMDKKYRSQH) [reference compound]
effect on prothrombinase / factor Va cofactor activity at fixed concentration [2]: no effect on cofactor activity; also recorded: no effect on prothrombinase function

Substance: Wild type FV: recombinant wild type human factor V expressed in COS-7L cells
specific clotting activity after activation by RVV-V activator ([6]; activated by RVV-V activator): 570 U/mg
specific clotting activity after activation by thrombin ([6]; activated by thrombin): 497 U/mg
Activity [6]: 0.12 U/ml
Specific activity [6]: 145 U/mg
clotting time [6]: 32.1 ± 1.2 s

Source: patent US20100267638A1, “EXOSITE-DIRECTED THROMBIN INHIBITORS” (CLEVELAND STATE UNIVERSITY, priority 2003, published 2010)
